Test results from US9018224B2, “Substituted cyclopropyl compounds useful as GPR119 agonists” (Merck Sharp & Dohme Corp., priority 2011, dated 2015).
pEC50: −log10 of the molar value.

target: T1, human GPR119 (Homo sapiens, UniProt Q8TDV5); assay: Measurement of GPR119 signaling by cAMP (LANCE cAMP kit or HTRF) in HEK293 cells transfected with human GPR119; format: cell-based; conditions: agonist cAMP response in HEK293 cells stably transfected with human GPR119; patent does not say which of the two cAMP formats (LANCE or HTRF)
T1 sequence (Q8TDV5 1-308 limits assumed): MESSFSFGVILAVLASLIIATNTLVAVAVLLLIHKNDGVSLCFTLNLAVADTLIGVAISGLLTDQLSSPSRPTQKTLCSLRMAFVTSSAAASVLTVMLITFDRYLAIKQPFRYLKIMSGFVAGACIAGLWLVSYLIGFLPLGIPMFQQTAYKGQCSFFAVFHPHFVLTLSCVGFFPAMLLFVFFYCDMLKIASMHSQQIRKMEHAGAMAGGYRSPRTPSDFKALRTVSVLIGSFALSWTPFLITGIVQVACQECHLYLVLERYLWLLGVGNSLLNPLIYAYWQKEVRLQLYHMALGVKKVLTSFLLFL
In short: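 LANCE TR-FRET cAMP readout; detection with Eu-SA/biotin-cAMP tracer for 3 h, signal converted to cAMP via standard curve, duplicates, 4-parameter fit vs DMSO basal and internal agonist maximum.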

pEC50	SMILES
8.77	Cc1cc(OCC[C@@H]2C[C@@H]2C2CCN(c3ncc(Cl)cn3)CC2)ccc1CC(=O)N(C)C [Example 18, 2-[4-(2-{(1S,2R)-2-[1-(5-chloropyrimidin-2-yl)piperidin-4-yl]cyclopropyl}ethoxy)-2-methylphenyl]-N,N-dimethylacetamide]
8.68	COc1cnc(N2CCC([C@H]3C[C@H]3CCOc3ccc(CC(=O)N4CC(O)C4)c(F)c3)CC2)nc1 [Example 33, 2-[2-fluoro-4-(2-{(1S,2R)-2-[1-(5-methoxypyrimidin-2-yl)piperidin-4-yl]cyclopropyl}ethoxy)phenyl]-1-(3-hydroxyazetidin-1-yl)ethanone]
9.15	COC(=O)Cc1ccc(OCC[C@@H]2C[C@@H]2C2CCN(c3ncc(Cl)cn3)CC2)cc1F [Example 61]
9.72	O=C(Cc1ccc(OCC[C@@H]2C[C@@H]2C2CCN(c3ncc(Cl)cn3)CC2)cc1F)N1CCC1 [Example 60, 1-(azetidin-1-yl)-2-[4-(2-{(1S,2R)-2-[1-(5-chloropyrimidin-2-yl)piperidin-4-yl]cyclopropyl}ethoxy)-2-fluorophenyl]ethanone]
8.96	O=C(Cc1ccc(OCC[C@@H]2C[C@@H]2C2CCN(c3ncc(Cl)cn3)CC2)cc1F)N1CCn2ccnc2C1 [Example 149]
8.77	C[C@H]1CCCN1C(=O)Cc1ccc(OCC[C@@H]2C[C@@H]2C2CCN(c3ncc(Cl)cn3)CC2)cc1F [Example 117]
8.28	O=C(Cc1ccc(OCC[C@@H]2C[C@@H]2C2CCN(c3ncc(Cl)cn3)CC2)cc1F)NCC1(O)CC1 [Example 101]
8.13	CCc1cnc(N2CCC([C@H]3C[C@H]3CCOc3ccc(CC(=O)N4CCC4)cn3)CC2)nc1 [Example 241, 1-(azetidin-1-yl)-2-[6-(2-{(1S,2R)-2-[1-(5-ethylpyrimidin-2-yl)piperidin-4-yl]cyclopropyl}ethoxy)pyridin-3-yl)ethanone]
8.85	O=C(Cc1ccc(OCC[C@@H]2C[C@@H]2C2CCN(c3ncc(Cl)cn3)CC2)cc1F)NC1CC1 [Example 62]
8.41	COc1nnc2n1CCN(C(=O)Cc1ccc(OCC[C@@H]3C[C@@H]3C3CCN(c4ncc(Cl)cn4)CC3)cc1F)C2 [Example 137]
8.96	O=C(Cc1ccc(OCC[C@@H]2C[C@@H]2C2CCN(c3ncc(Cl)cn3)CC2)cc1F)N1CC(n2ccnc2)C1 [Example 118]
8.85	COc1cnc(N2CCC([C@H]3C[C@H]3CCOc3ccc(CC(=O)N4CCOCC4)c(F)c3)CC2)nc1 [Example 38]
8.19	O=C(Cc1ccc(OCC[C@@H]2C[C@@H]2C2CCN(c3ncc(Cl)cn3)CC2)cc1F)N1CCc2sc(C3CC3)nc2C1 [Example 190]
8.89	O=C(Cc1ccc(OCC[C@@H]2C[C@@H]2C2CCN(c3ncc(Cl)cn3)CC2)cc1F)NC1CCCC1 [Example 83]
8.89	O=C(Cc1ccc(OCC[C@@H]2C[C@@H]2C2CCN(c3ncc(Cl)cn3)CC2)cc1F)N1CCc2ncccc2C1 [Example 198]
9.23	COc1cnc(N2CCC([C@H]3C[C@H]3CCOc3cc(F)c(CC(=O)N4CC(O)C4)c(F)c3)CC2)nc1 [Example 210, 2-[2,6-difluoro-4-(2-{(1S,2R)-2-[1-(5-methoxypyrimidin-2-yl)piperidin-4-yl]cyclopropyl}ethoxy)phenyl]-1-(3-hydroxyazetidin-1-yl)ethanone]
8.47	Cc1ccc2n1CCN(C(=O)Cc1ccc(OCC[C@@H]3C[C@@H]3C3CCN(c4ncc(Cl)cn4)CC3)cc1F)C2C (stereo partly drawn) [Example 191]
8.11	COCc1cnc(N2CCC([C@H]3C[C@H]3CCOc3ccc(Cc4nnco4)c(F)c3)CC2)nc1 [Example 246]
8.28	COCc1cnc(N2CCC([C@H]3C[C@H]3CCOc3ccc(CC(=O)N4CC(C)(C)C4)cc3)CC2)nc1 [Example 13]
9.38	COc1cnc(N2CCC([C@H]3C[C@H]3CCOc3ccc(CC(=O)N4CC(F)(F)C4)c(F)c3)CC2)nc1 [Example 40]
8.24	O=C(Cc1ccc(OCC[C@@H]2C[C@@H]2C2CCN(c3ncc(Cl)cn3)CC2)cc1F)NC(C1CC1)C1CC1 [Example 110]
8.54	O=C(Cc1ccc(OCC[C@@H]2C[C@@H]2C2CCN(c3ncc(Cl)cn3)CC2)cc1F)N1CCC(C(F)(F)F)n2nccc21 (stereo partly drawn) [Example 195]
8.72	CCOCc1cnc(N2CCC([C@H]3C[C@H]3CCOc3ccc(CC(=O)N4CC(O)C4)c(F)c3)CC2)nc1 [Example 199, 2-(4-{2-[(1S,2R)-2-{1-[5-(ethoxymethyl)pyrimidin-2-yl]piperidin-4-yl}cyclopropyl]ethoxy}-2-fluorophenyl)-1-(3-hydroxyazetidin-1-yl)ethanone]
8.40	CC1CCN(C(=O)Cc2ccc(OCC[C@@H]3C[C@@H]3C3CCN(c4ncc(Cl)cn4)CC3)cc2F)CC1 [Example 99]

pEC50	SMILES
8.82	COCc1cnc(N2CCC([C@H]3C[C@H]3CCOc3ccc(CC(=O)N4CC(C)(O)C4)c(Cl)c3)CC2)nc1 [Example 31]
8.92	Cc1nc2c(o1)CN(C(=O)Cc1ccc(OCC[C@@H]3C[C@@H]3C3CCN(c4ncc(Cl)cn4)CC3)cc1F)CC2 [Example 141]
8.38	O=C(Cc1ccc(OCC[C@@H]2C[C@@H]2C2CCN(c3ncc(Cl)cn3)CC2)cc1F)NC1CCC1 [Example 63]
8.54	CN(C(=O)Cc1ccc(OCC[C@@H]2C[C@@H]2C2CCN(c3ncc(Cl)cn3)CC2)cc1F)C1CCCC1 [Example 82]
8.82	O=C(Cc1ccc(OCC[C@@H]2C[C@@H]2C2CCN(c3ncc(Cl)cn3)CC2)cc1F)N1CCc2ncncc2C1 [Example 127]
8.60	O=C(Cc1ccc(OCC[C@@H]2C[C@@H]2C2CCN(c3ncc(Cl)cn3)CC2)cc1F)N1CCCC1CO (stereo partly drawn) [Example 108]
8.14	COCc1cnc(N2CCC([C@H]3CC3CCOc3cc(F)c(CCO)c(F)c3)CC2)nc1 (stereo in doubt) [Example 240, 2-{2,6-Difluoro-4-[2-((1R,2R)-2-{1-[5-(methoxymethyl)pyrimidin-2-yl]piperidin-4-yl}cyclopropyl)ethoxy]phenyl}ethanol]
9.70	COc1cnc(N2CCC([C@H]3C[C@H]3CCOc3cc(F)c(CC(=O)N4CCC4)c(F)c3)CC2)nc1 [Example 214]
9.11	Cc1nc2c(s1)CN(C(=O)Cc1ccc(OCC[C@@H]3C[C@@H]3C3CCN(c4ncc(Cl)cn4)CC3)cc1F)CC2 [Example 176]
8.43	CCC(CO)NC(=O)Cc1ccc(OCC[C@@H]2C[C@@H]2C2CCN(c3ncc(Cl)cn3)CC2)cc1F (stereo partly drawn) [Example 114]
8.49	CN(CCS(C)(=O)=O)C(=O)Cc1ccc(OCC[C@@H]2C[C@@H]2C2CCN(c3ncc(Cl)cn3)CC2)cc1F [Example 169]
9.89	CCOc1cnc(N2CCC([C@H]3C[C@H]3CCOc3cc(F)c(CC(=O)N4CC(F)(F)C4)c(F)c3)CC2)nc1 [Example 231]
8.80	O=C(Cc1ccc(OCC[C@@H]2C[C@@H]2C2CCN(c3ncc(Cl)cn3)CC2)cc1F)NCC(F)(F)F [Example 79]
8.89	CN(C(=O)Cc1ccc(OCC[C@@H]2C[C@@H]2C2CCN(c3ncc(Cl)cn3)CC2)cc1F)C1CCOCC1 [Example 155]
8.08	COCc1cnc(N2CCC([C@H]3C[C@H]3CCOc3ccc(CC(=O)N4CCOCC4)cc3)CC2)nc1 [Example 10]
8.42	COCc1cnc(N2CCC([C@H]3C[C@H]3CCOc3ccc(CC(=O)N4CCC4)cc3)CC2)nc1 [Example 9]
8.80	COCc1cnc(N2CCC([C@H]3C[C@H]3CCOc3cc(F)c(CC(=O)N(C)C)cc3F)CC2)nc1 [Example 209, 2-{2,5-difluoro-4-[2-((1S,2R)-2-{1-[5-(methoxymethyl)pyrimidin-2-yl]piperidin-4-yl}cyclopropyl)ethoxy]phenyl}-N, N-dimethylacetamide]
8.66	COC(=O)C1CN(C(=O)Cc2ccc(OCC[C@@H]3C[C@@H]3C3CCN(c4ncc(Cl)cn4)CC3)cc2F)C1 [Example 115]
9.03	COc1cnc(N2CCC([C@H]3C[C@H]3CCOc3ccc(CC(=O)N4CCC4)c(F)c3)CC2)nc1 [Example 37]
8.54	O=C(Cc1ccc(OCC[C@@H]2C[C@@H]2C2CCN(c3ncc(Cl)cn3)CC2)cc1F)N1CCc2c(C(F)(F)F)n[nH]c2C1 [Example 147]
9.15	CC(C)(O)c1cnc(N2CCC([C@H]3C[C@H]3CCOc3cc(F)c(CC(=O)N4CCC4)c(F)c3)CC2)nc1 [Example 206]
8.77	O=C(Cc1ccc(OCC[C@@H]2C[C@@H]2C2CCN(c3ncc(Cl)cn3)CC2)cc1F)NC1CC1(F)F (stereo partly drawn) [Example 88]
9.07	COCc1cnc(N2CCC([C@H]3C[C@H]3CCOc3ccc(CC(=O)N4CC(OC)C4)c(Cl)c3)CC2)nc1 [Example 30]

SMILES	pEC50
CCc1cnc(N2CCC([C@H]3C[C@H]3CCOc3ccc(CC(=O)N4CCC4)c(F)c3)CC2)nc1 [Example 207, 1-(azetidin-1-yl)-2-[4-(2-{(1S,2R)-2-[1-(5-ethylpyrimidin-2-yl)piperidin-4-yl]cyclopropyl}ethoxy)-2-fluorophenyl]ethanone]	9.40
